Results from US8680102B2, “Pyrrole derivatives, their preparation and their therapeutic application” (Sanofi, priority 2008, dated 2014).

Tests used:
[1] = target: T1, CB1 receptors present at the periphery (Mus musculus, UniProt P47746); test: blocking of the inhibitory effect of CP55940 on the gastrointestinal transit; format: in vivo; conditions: po route at 10 mg/kg, mice
T1 construct: from tissue; host or cells: whole mouse, in vivo (peripheral / gastrointestinal CB1)
Experimental: A percentage reversion of the effect of CP55940 greater than 50% at 10 mg/kg indicates a significant antagonist power at the level of the CB1 receptors present at the periphery.

[2] = target: T2, CB1 receptors present in the brain (Mus musculus, UniProt P47746); test: Measurement (2): ex vivo test of binding of [3H]-CP55940 in the brain; set-up: the CB1 receptors present in the brain in mice; from tissue; host or cells: mouse brain, after intravenous administration; conditions: iv route at 10 mg/kg, mice
[3] = target: T2, CB1 receptors present in the brain; test: Measurement (3): blocking of the hypothermic effect induced by CP55940; format: in vivo; set-up: from tissue; host or cells: whole animal, in vivo (brain CB1); conditions: iv route at 10 mg/kg
[4] = Measurement (1): quantification of compound in brain and plasma by LC-MS/MS; format: in vivo; conditions: iv route at 3 mg/kg, mouse, read-out: Ratio: Quantity present in the brain / Quantity present in the plasma

T1 sequence (P47746 whole entry): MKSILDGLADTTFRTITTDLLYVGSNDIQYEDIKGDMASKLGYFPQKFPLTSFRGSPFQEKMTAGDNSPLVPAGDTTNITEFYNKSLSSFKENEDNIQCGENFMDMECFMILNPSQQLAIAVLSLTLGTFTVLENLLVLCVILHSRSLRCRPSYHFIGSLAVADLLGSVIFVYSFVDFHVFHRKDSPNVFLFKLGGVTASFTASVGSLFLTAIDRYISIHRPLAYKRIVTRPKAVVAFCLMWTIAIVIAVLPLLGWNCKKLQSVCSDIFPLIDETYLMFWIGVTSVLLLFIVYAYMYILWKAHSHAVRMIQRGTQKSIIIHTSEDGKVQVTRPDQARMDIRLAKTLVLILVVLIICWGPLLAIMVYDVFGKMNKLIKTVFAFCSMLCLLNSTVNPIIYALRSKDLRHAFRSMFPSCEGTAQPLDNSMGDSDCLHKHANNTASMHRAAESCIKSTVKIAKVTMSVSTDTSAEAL
T2 sequence (P47746 whole entry): as above

Structure (SMILES) | % reversion of the effect of CP55940 on the GIT [1] [%] | inhibition at 10 mg/kg [2] [%] | % reversion of the hypothermic effect of CP55940 [3] [%] | Kp [4]
NC(=O)C1(N2CCC(F)(F)CC2)CCN(C(=O)c2cc(-c3ccc(Cl)cc3Cl)n(-c3ccc(Cl)cc3)c2CCCCO)CC1 [compound 17, 1′-{[1-(4-chlorophenyl)-5-(2,4-dichlorophenyl)-2-(4-hydroxybutyl)-1H-pyrrol-3-yl]carbonyl}-4,4-difluoro-1,4′-bipiperidine-4′-carboxamide] | 97 | 23 | 60 | 
NC(=O)C1(c2ccccc2)CCN(C(=O)c2cc(-c3ccc(Cl)cc3Cl)n(-c3ccc(Cl)cc3)c2CCO)CC1 [compound 14, 1-{[1-(4-chlorophenyl)-5-(2,4-dichlorophenyl)-2-(2-hydroxyethyl)-1H-pyrrol-3-yl]carbonyl}-4-phenylpiperidine-4-carboxamide] | 85 | 27 | 60 | 
NC(=O)C1(c2ccccc2)CCN(C(=O)c2cc(-c3ccc(Cl)cc3Cl)n(-c3ccc(Cl)cc3)c2CCCCO)CC1 [compound 13, 1-{[1-(4-chlorophenyl)-5-(2,4-dichlorophenyl)-2-(4-hydroxybutyl)-1H-pyrrol-3-yl]carbonyl}-4-phenylpiperidine-4-carboxamide] | 100 | 5 | 58 | 
NC(=O)C1(c2ccc(Cl)cc2)CCN(C(=O)c2cc(-c3ccc(Cl)cc3Cl)n(-c3ccc(Cl)cc3)c2CCCO)CC1 [compound 30, 4-(4-chlorophenyl)-1-{[1-(4-chlorophenyl)-5-(2,4-dichlorophenyl)-2-(3-hydroxypropyl)-1H-pyrrol-3-yl]carbonyl}piperidine-4-carboxamide] | 74 | 21 | 32 | 0.06
